Values joined by “and” are separate entries in the source; they are usually repeats but may differ in a detail not shown here. Equal values may be shown once. Active and inactive are the calls of the source.
How the values were obtained:
H9c2 = test: cells; assay type: functional, cell-based; conditions: Rattus norvegicus, H9c2, Myocardium;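 further: confirmatory concentration-response retest of ultra-high-throughput screening hits for modulation of myocardial damage; cell death induced by hydrogen peroxide oxidative stress; compound pretreatment for 60 min then peroxide exposure for 2 h; potency is for protecting the cells against peroxide damage rather than for killing them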
Cytochrome P450 2D6 = Cytochrome P450 2D6 (Homo sapiens, UniProt P10635);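 further: CYP2D6 member of a cytochrome P450 panel assay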
Cytochrome P450 2C9 = Cytochrome P450 2C9 (Homo sapiens, UniProt P11712)
[1] = target: T1, Polyadenylate-binding protein 1 (Homo sapiens, UniProt P11940); test: MLLE binding blockers, Cy5 peptide tracer – biochemical, fluorescence polarization, Cy5-PAM2 peptide, secondary, miRNA deadenylation inhibitor project, dose response (AID 602260); assay type: functional; conditions: read-out: IC50_Mean
[2] = target: T1, Polyadenylate-binding protein 1; test: MLLE domain peptide-binding blockers, IC50 – biochemical, fluorescence polarization, FITC-PAM2 peptide, dose response (AID 602259); assay type: functional; conditions: read-out: IC50_Mean
[3] = target: T2, Heat shock factor protein 1 (Mus musculus, UniProt P38532); test: decrease of HSF1-responsive luciferase luminescence – cell-based, NIH3T3, dose retest, confirmation (AID 2382); assay type: functional;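 further: NIH3T3 fibroblasts with HSF1-driven luciferase reporter stressed by proteasome inhibitor MG132; luminescence from HSF1-driven luciferase expression after 8 hours of MG132 stress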
T2 sequence (P38532 whole entry): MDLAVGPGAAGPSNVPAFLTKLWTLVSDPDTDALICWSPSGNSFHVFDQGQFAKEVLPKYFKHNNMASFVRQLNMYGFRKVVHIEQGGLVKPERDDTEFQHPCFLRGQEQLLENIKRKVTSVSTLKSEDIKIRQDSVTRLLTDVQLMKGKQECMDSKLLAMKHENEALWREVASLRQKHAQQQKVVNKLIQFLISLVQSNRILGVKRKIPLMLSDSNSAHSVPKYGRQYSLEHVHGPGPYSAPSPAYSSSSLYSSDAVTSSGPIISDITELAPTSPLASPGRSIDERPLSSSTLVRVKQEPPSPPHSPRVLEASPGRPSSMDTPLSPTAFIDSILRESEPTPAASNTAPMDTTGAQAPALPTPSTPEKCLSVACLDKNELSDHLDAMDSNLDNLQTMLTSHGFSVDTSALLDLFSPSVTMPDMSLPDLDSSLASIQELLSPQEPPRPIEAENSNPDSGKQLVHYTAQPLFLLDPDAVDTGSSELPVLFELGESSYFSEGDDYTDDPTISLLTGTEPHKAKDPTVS

Cytochrome P450 2C19 = Cytochrome P450 2C19 (Homo sapiens, UniProt P33261); test: Cytochrome panel assay with activity outcomes. Panel member name: p450-cyp2c19 Compounds with AC50 equal or less than 10 uM are considered active; assay type: functional; conditions: read-out: AC50
Cytochrome P450 1A2 = target: T3, Cytochrome P450 1A2 (Homo sapiens, UniProt P05177);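 further: PubChem cytochrome P450 panel assay, CYP1A2 panel member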
T3 sequence (P05177 whole entry): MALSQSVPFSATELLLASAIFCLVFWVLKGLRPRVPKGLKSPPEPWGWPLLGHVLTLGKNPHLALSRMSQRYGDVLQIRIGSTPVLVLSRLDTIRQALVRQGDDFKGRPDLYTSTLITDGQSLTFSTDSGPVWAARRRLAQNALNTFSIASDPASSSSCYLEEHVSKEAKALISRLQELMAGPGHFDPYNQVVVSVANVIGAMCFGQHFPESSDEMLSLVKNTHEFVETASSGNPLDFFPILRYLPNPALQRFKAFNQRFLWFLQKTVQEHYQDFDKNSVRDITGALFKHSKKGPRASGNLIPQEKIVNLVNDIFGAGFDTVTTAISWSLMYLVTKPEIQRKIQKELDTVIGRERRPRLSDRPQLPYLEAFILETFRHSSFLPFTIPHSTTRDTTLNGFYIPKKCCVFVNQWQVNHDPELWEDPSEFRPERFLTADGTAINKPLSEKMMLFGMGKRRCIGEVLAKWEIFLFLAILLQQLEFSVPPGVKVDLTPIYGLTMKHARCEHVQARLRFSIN

[4] = target: T4, Replicative DNA helicase DnaB (Mycobacterium tuberculosis, UniProt P9WMR3); test: DnaB intein splicing inhibitors, dose response, biochemical, cell-free fluorescence (AID 449749); assay type: functional
T4 sequence (P9WMR3 whole entry): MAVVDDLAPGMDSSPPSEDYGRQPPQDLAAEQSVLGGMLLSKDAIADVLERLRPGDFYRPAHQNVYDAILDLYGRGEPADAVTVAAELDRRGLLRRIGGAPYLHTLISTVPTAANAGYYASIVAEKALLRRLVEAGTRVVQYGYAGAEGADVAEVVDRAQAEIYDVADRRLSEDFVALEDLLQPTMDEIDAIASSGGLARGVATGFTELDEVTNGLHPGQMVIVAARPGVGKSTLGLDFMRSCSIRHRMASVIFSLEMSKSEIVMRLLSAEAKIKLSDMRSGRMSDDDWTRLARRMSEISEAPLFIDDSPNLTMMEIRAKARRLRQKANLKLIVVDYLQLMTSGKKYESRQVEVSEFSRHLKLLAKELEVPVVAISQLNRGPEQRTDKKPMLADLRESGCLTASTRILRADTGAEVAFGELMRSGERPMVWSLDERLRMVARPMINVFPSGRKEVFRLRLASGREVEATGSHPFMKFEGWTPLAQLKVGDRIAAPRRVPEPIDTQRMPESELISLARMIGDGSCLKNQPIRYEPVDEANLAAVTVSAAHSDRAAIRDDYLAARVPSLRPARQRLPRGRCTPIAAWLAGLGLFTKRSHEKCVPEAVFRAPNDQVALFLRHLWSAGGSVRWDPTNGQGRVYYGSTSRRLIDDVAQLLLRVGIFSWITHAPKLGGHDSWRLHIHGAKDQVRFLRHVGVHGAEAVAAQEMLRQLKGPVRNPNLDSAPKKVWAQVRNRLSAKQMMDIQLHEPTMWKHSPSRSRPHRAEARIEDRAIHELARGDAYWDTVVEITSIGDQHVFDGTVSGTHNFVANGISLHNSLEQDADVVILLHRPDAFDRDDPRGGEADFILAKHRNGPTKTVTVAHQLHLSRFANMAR

Protein RecA = target: T5, Protein RecA (Mycobacterium tuberculosis, UniProt P9WHJ3); test: Fluorescence Cell-Free Homogeneous Dose Retest to Identify Inhibitors of RecA-Intein Splicing Activity. [Related pubchem assays (depositor defined):AID2097, AID2223, AID489010, AID492950]; assay type: functional
T5 sequence (P9WHJ3 whole entry): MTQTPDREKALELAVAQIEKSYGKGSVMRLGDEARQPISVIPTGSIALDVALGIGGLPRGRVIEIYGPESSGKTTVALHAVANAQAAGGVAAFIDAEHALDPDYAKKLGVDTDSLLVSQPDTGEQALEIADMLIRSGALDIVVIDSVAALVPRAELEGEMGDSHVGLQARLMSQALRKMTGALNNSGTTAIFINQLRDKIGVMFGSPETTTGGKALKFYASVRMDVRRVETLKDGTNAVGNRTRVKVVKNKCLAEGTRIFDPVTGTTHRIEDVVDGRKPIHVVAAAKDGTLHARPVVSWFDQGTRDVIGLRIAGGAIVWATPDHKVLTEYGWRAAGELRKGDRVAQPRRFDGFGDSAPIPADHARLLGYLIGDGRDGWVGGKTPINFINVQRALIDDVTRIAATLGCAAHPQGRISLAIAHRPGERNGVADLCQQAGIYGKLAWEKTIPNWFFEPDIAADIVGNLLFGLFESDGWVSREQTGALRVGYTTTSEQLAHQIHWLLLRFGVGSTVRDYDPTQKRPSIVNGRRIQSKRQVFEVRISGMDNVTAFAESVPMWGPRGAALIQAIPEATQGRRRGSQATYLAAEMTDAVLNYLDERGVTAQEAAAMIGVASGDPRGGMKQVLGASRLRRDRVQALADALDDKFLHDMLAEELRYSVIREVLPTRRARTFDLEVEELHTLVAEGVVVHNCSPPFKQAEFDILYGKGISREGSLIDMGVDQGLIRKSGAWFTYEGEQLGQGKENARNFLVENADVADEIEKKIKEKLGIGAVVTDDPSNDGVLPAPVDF

Genome polyprotein = Genome polyprotein (dengue virus type 2, UniProt P29990); test: flavivirus cap methylation enzyme inhibition – biochemical, confirmation dose response, primary screen (AID 588689); assay type: functional
[5] = luciferase reporter signal suppression in cells – H4 neuroglioma cells, luminescence, dose response (AID 1990); assay type: functional, cell-based
[6] = Luminescence Cell-Based Dose Response HTS to Identify Inhibitors of 5'UTR Stem-Loop Driven Prion Protein mRNA Translation in H4 Neuroglioblastoma Cells. [Related pubchem assays: 1827 (Project Summary), 1813 (Primary HTS)]; assay type: functional
[7] = alpha-synuclein stem-loop luciferase translation blockers – H4 neuroglioma cells, luminescence, confirmation (AID 1988); assay type: functional, cell-based
INS1 = test: INS-1E survival protection against cytokine death – cell-based, luminescence, retest, dose response (AID 449756); assay type: functional; conditions: Rattus norvegicus;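 further: cell death triggered by IL-1 beta plus TNF-alpha plus IFN-gamma mixture; protective hits raise ATP signal compared with cytokine alone wells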
[8] = Luminescence Cell-Based Dose Response HTS to Identify Activators of Luciferase Translation or Activity in H4 […] Cells. [Related pubchem assays: 1829 (Project Summary), 1814 (Primary HTS)]; assay type: functional
H4 = test: Luminescence Cell-Based Dose Response HTS to Identify Activators of 5'UTR Stem-Loop Driven Prion Protein mRNA Translation in H4 Neuroglioblastoma Cells. [Related pubchem assays: 1829 (Project Summary), 1814 (Primary HTS)]; assay type: functional; conditions: Homo sapiens
Cytochrome P450 3A4 = Cytochrome P450 3A4 (Homo sapiens, UniProt P08684);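 further: CYP3A4 tested as one member of a cytochrome P450 panel screen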

Compound	AC50 (Cytochrome P450 2D6)	IC50 [1]	IC50 [2]	also measured
O=C1c2ccccc2NC(c2ccc(Cl)cc2Cl)N1O (configuration not stated)	14.1 µM (inconclusive)			IC50 (H9c2): > 79 µM (inactive); AC50 (Cytochrome P450 2C9): 25.1 µM (inconclusive)
S=C(Nc1ccc(Br)cc1Cl)Nn1cnnc1		> 66 µM (inactive)	> 66 µM (inactive)	
COc1ccc(CONS(=O)(=O)c2ccc(NC(C)=O)cc2)cc1Cl	3.55 µM (inconclusive)			
O=C(CNC(=O)C1CCCCC1)NC1=NCCS1		> 66 µM (inactive)	> 66 µM (inactive)	EC50 [3]: > 195 µM (not active)
O=C(CSc1nnc(-c2cccnc2)o1)Nc1ccccc1F		> 66 µM (inactive)	> 66 µM (inactive)	
CCCCC#Cc1nc(NC)c2ncn([C@@H]3O[C@@H](CO)[C@H](O)[C@H]3O)c2n1	31.6 µM (inconclusive)			AC50 (Cytochrome P450 2C19): 3.16 µM (inconclusive); AC50 (Cytochrome P450 1A2): 31.6 µM (inconclusive)
O=C1/C(=C/c2cccnc2)SC(=S)N1c1ccc(F)cc1		> 66 µM (inactive)	> 66 µM (inactive)	
COc1cc(C2c3sc(O)nc3SC3C(=O)N(c4ccc(Br)cc4)C(=O)C32)ccc1O (configuration not stated)		> 66 µM (inactive)	> 66 µM (inactive)	
CC1=NN(c2ccccc2)C(=O)/C1=C/c1ccc(Cl)cc1				AC50 [4]: 2.15 µM (active); EC50 (Protein RecA): 1.35 µM (active); IC50 (Genome polyprotein): 38.6 µM (active)
COC(=O)C1=C(C)OC(N)=C(C#N)C1C1CCCCC1 (configuration not stated)	31.6 µM (inconclusive)			AC50 (Cytochrome P450 1A2): 15.8 µM (inconclusive)
CC(=O)c1c(C)cc(C)c(CSc2nc(C)cc(=O)[nH]2)c1C		> 66 µM (inactive)	> 66 µM (inactive)	
Cn1nc([N+](=O)[O-])c(C(C#N)c2nc3ccccc3n2C)c(Cl)c1=O (configuration not stated)		> 66 µM (inactive)	30.8 µM (inactive)	IC50 (Genome polyprotein): 16.7 µM (active)
Cc1ccc(NC(=O)C2(NC(=O)c3cccc(N4C(=O)CSC4c4ccccc4)c3)CCCCC2)cc1 (configuration not stated)	1.12 µM (inconclusive)			EC50 [5]: > 120 µM (not active); EC50 [6]: > 120 µM (not active); EC50 [7]: > 120 µM (not active)
O=C(N/N=C/c1cnc(N2CCCCC2)s1)c1ccc(C(F)(F)F)cc1				EC50 [5]: 12 µM (active); EC50 [6]: > 120 µM (not active); EC50 [7]: 9.6 µM (active); AC50 (INS1): 4.54 µM (active)
COc1ccc(-c2cc(C(=O)N3CCN(c4ccccn4)CC3)c3ccccc3n2)cc1				EC50 [8]: > 120 µM (not active); EC50 (H4): 7.36 µM (active)
CCOC(=O)C1=C(O)C(=O)N(Cc2ccccc2)C1	31.6 µM (inconclusive)			
COc1cc(C(=S)N2CCOCC2)cc(OC)c1OS(=O)(=O)c1ccc(C)cc1		> 66 µM (inactive)	> 66 µM (inactive)	
COc1ccc2c([N+](=O)[O-])c(Cl)[nH]c2c1				IC50 (Genome polyprotein): > 100 µM (active)
COC(=O)CCC(=O)OC1(C)C(=O)C2=CN(Cc3ccccc3)C(c3ccc(OC)cc3)=CC2=C(Br)C1=O (configuration not stated)				IC50 (Genome polyprotein): 39.1 µM (active)
C(=N\N(c1ccccc1)c1ccccc1)/c1ccc2c(c1)OCO2	10 µM (inconclusive)			AC50 (Cytochrome P450 2C19): 2.51 µM (inconclusive); AC50 (Cytochrome P450 3A4): 15.8 µM (inconclusive); AC50 (Cytochrome P450 2C9): 8.91 µM (inconclusive)
COc1c2c(c3c(c1OC)c(=O)c1ccccc1n3C)OCO2		> 66 µM (inactive)	41.7 µM (inactive)	
OCCN1CCN(CC/C=C2\c3ccccc3Sc3ccc(C(F)(F)F)cc32)CC1 [E-FLUPENTIXOL]	6.31 µM (inconclusive) and 31.6 µM (inconclusive)			
O=C(/C=C\c1ccc(O)c(O)c1)OCCc1ccccc1	39.8 µM (inconclusive)			AC50 (Cytochrome P450 2C9): 39.8 µM (inconclusive)
